Measurements reported in patent US20210267986A1, “THERAPEUTIC REGIMENS FOR TREATMENT OF CANCER USING ERIBULIN AND SELECTIVE CDK4/6 INHIBITOR COMBINATIONS” (G1 Therapeutics, Inc., priority 2018, published 2021).

Assays:
MCF7 tumor cells = assay: EdU incorporation by flow cytometry in MCF7 tumor-bearing mice, tumor cells; format: in vivo; conditions: single dose IP 100 mg/kg
Description: (§1) FIG. 2A is a graph depicting the percentage of EdU positive MCF7 tumor cells vs. Edu positive Lin^− bone marrow cells from MCF7 tumor bearing mice treated with Compound 1 at 4, 12, 24, and 48 hours post treatment. MCF7 tumor cells are on the left at each time point while Lin- bone marrow cells are on the right at each time point. FIG. 2B is a graph depicting the percentage of EdU positive MCF7 tumor cells vs. Edu positive Lin^− bone marrow cells from MCF7 tumor bearing mice treated with Compound 1 at 4, 12, 24, and 48 hours post treatment normalized to baseline. MCF7 tumor cells are on the left at each time point while Lin- bone marrow cells are on the right at each time point.
(§2) MCF7 tumor-bearing mice were treated with a single dose of Compound 1 (IP, 100 mg/kg) or vehicle control. After 4, 12, 24, and 48 hours of treatment, animals were pulsed with 5-ethynyl-2′-deoxyuridine (EdU; IP, 200 […]g). Tumors and femurs from each animal were harvested after 4 hours of EdU dosing and processed to single cell suspensions for detection of EdU+ cells by flow cytometry. HSPC in bone marrow is defined as cell populations negative for lineage markers (Mac-1, Gr-1, Ter119, B220, CD4, CD8). […] Students T tests were completed to compare % EdU+ cells (tumor vs bone marrow) at baseline in panel A ****p≤0.0001.

[1] = tested on: lineage negative (Lin−) bone marrow cells (HSPC); assay: EdU incorporation by flow cytometry in MCF7 tumor-bearing mice, bone marrow; format: in vivo; conditions: single dose IP 100 mg/kg
Description: as §1, §2

[2] = tested on: MDA-MB-231 breast cancer xenograft; assay: MDA-MB-231 xenograft, daily Compound 1 with weekly eribulin, tumor volume; format: in vivo, mice
Description: The y-axis is tumor volume measured in cubic millimeters. The x-axis is time measured in days. The dotted line represents dates of weekly treatment. The error bars represent standard error of the mean.
A highly CDK4/6 dependent breast cancer xenograft model (MDA-MB-231) was employed to determine whether continuous CDK4/6 inhibition with Compound 1 would antagonize the intended therapeutic effects of eribulin. First, MDA-MB-231 tumor-bearing mice were treated daily with Compound 1 (IP, 100 mg/kg, n=10) for 28 days to confirm the CDK4/6 dependency of the xenograft model. Next, MDA-MB-231 tumor-bearing mice were treated with eribulin (IV, 0.5 mg/kg, n=10) weekly for three weeks. Next, MDA-MB-231 tumor-bearing mice were treated daily with Compound 1 (IP, 100 mg/kg, n=10) and with eribulin (IV, 0.5 mg/kg, n=10) weekly for three weeks, with Compound 1 being given 30 minutes prior to chemotherapy treatment on days 1, 8, and 15. In all experiments, tumors were measured, and tumor volume was calculated twice weekly. The dosing schedule is shown below in Table 1. […] Therefore, Compound 1 can be administered to preserve hematopoietic stem and progenitor cell (HSPC) and immune system function during eribulin therapy without antagonizing the intended anti-tumor efficacy of eribulin.

[3] = tested on: MDA-MB-231 breast cancer xenograft; assay: MDA-MB-231 xenograft, weekly Compound 1 30 minutes prior to eribulin, tumor volume; format: in vivo, mice
Description: The graphs represent mean tumor volume over time. The y-axis is tumor volume measured in cubic millimeters. The x-axis is time measured in days. The dotted line represents dates of weekly treatment. The error bars represent standard error of the mean.
A highly CDK4/6 dependent breast cancer xenograft model (MDA-MB-231) was employed to determine whether transient CDK4/6 inhibition with Compound 1 would antagonize the intended therapeutic effects. First, MD-MB-231 tumor-bearing mice were treated daily with Compound 1 (IP, 100 mg/kg, n=6-8) for 28 days to confirm the CDK4/6 dependency of the xenograft model. Next, MDA-MB-231 tumor-bearing mice were treated with eribulin (IV, 0.5 mg/kg) with or without Compound 1 (IP, 100 mg/kg) weekly for three weeks, with Compound 1 being given 30 minutes prior to chemotherapy treatment. In all experiments, tumors were measured, and tumor volume was calculated twice weekly. […] Therefore, Compound 1 can be administered to preserve hematopoietic stem and progenitor cell (HSPC) and immune system function during eribulin therapy without antagonizing the intended anti-tumor efficacy of eribulin.

[4] = patients receiving eribulin; cited from earlier work
[5] = MCF7 tumor cells, post treatment
[6] = Lin− bone marrow cells, post treatment

CN1CCN(c2ccc(Nc3ncc4cc5n(c4n3)C3(CCCCC3)CNC5=O)nc2)CC1 [Compound 1, 2′-((5-(4-methylpiperazin-1-yl)pyridin-2-yl)amino)-7′,8′-dihydro-6′H-spiro(cyclohexane-1,9′-pyrazino(1′,2′: 1,5)pyrrolo(2,3-d)pyrimidin)-6′-one]
time of maximal cell cycle inhibition (% EdU+ normalized to baseline) (MCF7 tumor cells; [5]): 24 h | time of reentering the cell cycle (MCF7 tumor cells; [5]): ≤ 48 h | cell cycle status of tumor cells after Compound 1 (MCF7 tumor cells; S/G2/M): a significant fraction of tumor cells are past the G1 checkpoint | G1-arrest of hematopoietic stem cells [1]: nearly universal G1-arrest | time of maximal cell cycle inhibition (% EdU+ normalized to baseline) [1, 6]: 24 h | time of reentering the cell cycle [1, 6]: ≤ 48 h | effect of continuous Compound 1 on eribulin therapy (tumor volume) ([2]; Compound 1 IP 100 mg/kg daily for 28 days plus eribulin IV 0.5 mg/kg weekly for three weeks, compared to eribulin alone): synergistic effect | anti-tumor effect of Compound 1 alone ([2]; IP 100 mg/kg daily for 28 days): did demonstrate a significant anti-tumor effect | effect of Compound 1 on eribulin therapy (tumor volume) ([3]; Compound 1 IP 100 mg/kg 30 minutes prior to eribulin IV 0.5 mg/kg, weekly for three weeks, compared to eribulin alone): no antagonist effect | anti-tumor effect of Compound 1 alone ([3]; IP 100 mg/kg, dosed on a similar schedule as in combination with eribulin (weekly for three weeks)): did not demonstrate any significant anti-tumor effect

C=C1C[C@@H]2CC[C@@]34C[C@H]5O[C@H]6[C@@H](O3)[C@H]3O[C@H](CC[C@@H]3O[C@H]6[C@H]5O4)CC(=O)C[C@@H]3[C@@H](OC)[C@@H](C[C@H](O)CN)O[C@H]3C[C@H]3O[C@@H](CC[C@@H]1O2)C[C@@H](C)C3=C [eribulin]
incidence of >grade 3 neutropenia [4]: around 57%
